In data set [1] the test system is HepG2 cells. Description: Cell glucose uptake assay in HepG2 cells. Conditions: relative glucose uptake at 5 µM in HepG2 cells, 3 h, compared with original glucose concentration of the medium; na = not active at 5 µM. The class given is cell-based, human. The method, then:
(§1) The hepatocyte cell line HepG2 cells obtained from the Type Culture Collection of the Chinese Academy of Sciences (Shanghai, China) were maintained in high-glucose DMEM (Gibco) supplemented with 10% fetal bovine serum (FBS) and 1% penicillin-streptomycin in an atmosphere of 5% CO2 at 37 °C.
Into a 96-well plate, 5 × 10^3 HepG2 cells per well were seeded. After 48 h, phenol red-free DMEM (Gibco) with 1% FBS was transferred to deprive the cells overnight, and then the tested compounds dissolved in a glucose-HEPES buffer (glucose concentration was 100 µg/mL) at a concentration of 5 µM were added to the culture system. Three hours later, the culture supernatants were collected and the glucose concentrations were detected using the Glucose (GO) Assay Kit (Sigma-Aldrich Corp.). Compared with the original glucose concentration of the buffer, the relative glucose uptake was calculated.

Data set [2] can be described thus: MTT assay for cell viability (cytotoxicity). The class given is cell-based, human. Conditions: human; HepG2 cells, 48 h incubation, MTT. The method, then: as §1
Into a 96-well plate, 1 × 10^3 HepG2 cells per well were seeded. After 24 h, stock solutions of test compounds in DMSO were diluted in DMEM to ≤0.1% final DMSO concentration. Cells were treated with various concentrations (2.5–25 µM) of tested compounds for 48 h, and the MTT solution (0.5 mg/mL) was added. After 4 h of incubation at 37 °C for MTT-formazan formation, the supernatant was discarded and 100 µL of DMSO was applied into each well to dissolve formazan crystals. Absorbance at 490 nm was determined spectrophotometrically by using a microplate reader (Epoch, BioTek Instruments, Inc., Winooski, VT, USA).

`Cc1ccc(C(=O)Nc2ccc(-c3cnc(N)nc3-c3c[nH]c4ccc(Br)cc34)cc2)cc1` [A21, N-(4-(2-amino-4-(5-bromo-1H-indol-3-yl)pyrimidin-5-yl)phenyl)-4-methylbenzamide] came in with a melting point of 291.7 to 292.4 °C. The “Cell Glucose Uptake (%)” value in data set [1] is on record as 24%. Also, the cytotoxic concentration (CC50) at 48 h in data set [2] amounted to 6.9 µM.

The compound `Fc1ccccc1Nc1nccc(-c2c[nH]c3ccc(Br)cc23)n1` [B1, 4-(5-Bromo-1H-indol-3-yl)-N-(2-fluorophenyl) pyrimidin-2-amine] yielded a melting point of 206.6 to 207.1 °C. Further, the “Cell Glucose Uptake (%)” value in data set [1] was found to be 20%. In data set [2], it took 10.5 µM to reach half-maximal cytotoxicity (CC50 at 48 h).

With `Fc1cccc(Nc2nccc(-c3c[nH]c4ccc(Br)cc34)n2)c1` [B2, 4-(5-Bromo-1H-indol-3-yl)-N-(3-fluorophenyl) pyrimidin-2-amine], the melting point lay in the range of 211.8 to 212.4 °C. For the same compound, the “Cell Glucose Uptake (%)” value in data set [1] was “no change”. In addition, the 50% cytotoxic concentration (CC50) at 48 h in data set [2] was 10.7 µM.

Regarding `Fc1ccc(Nc2nccc(-c3c[nH]c4ccc(Br)cc34)n2)cc1` [B3, 4-(5-Bromo-1H-indol-3-yl)-N-(4-fluorophenyl) pyrimidin-2-amine], the melting point was in the range of 246.8 to 247.7 °C. In addition, the “Cell Glucose Uptake (%)” value in data set [1] came to 7.4%. Besides, in data set [2], the 50% cytotoxic concentration (CC50) at 48 h was determined as 12.8 µM.

In the case of `Clc1ccccc1Nc1nccc(-c2c[nH]c3ccc(Br)cc23)n1` [B4, 4-(5-Bromo-1H-indol-3-yl)-N-(2-chlorophenyl) pyrimidin-2-amine], the melting point was 173.8 to 174.6 °C. In addition, the “Cell Glucose Uptake (%)” value in data set [1] was 22%. For the same compound, the CC50 at 48 h in data set [2] is greater than 25 µM.

In turn, `Clc1ccc(Nc2nccc(-c3c[nH]c4ccc(Br)cc34)n2)cc1` [B6, 4-(5-Bromo-1H-indol-3-yl)-N-(4-chlorophenyl) pyrimidin-2-amine] returned a melting point of 273.5 to 274.8 °C. In data set [1], the “Cell Glucose Uptake (%)” value turned out to be 14.4%. The compound also registered a half-maximal cytotoxic concentration (CC50) at 48 h in data set [2] of 21.1 µM.

With `Brc1ccc2[nH]cc(-c3ccnc(Nc4ccccc4Br)n3)c2c1` [B7, 4-(5-Bromo-1H-indol-3-yl)-N-(2-bromophenyl) pyrimidin-2-amine], the melting point fell in the range of 177.8 to 178.4 °C. The “Cell Glucose Uptake (%)” value in data set [1] stood at 26%. In data set [2], the CC50 at 48 h is greater than 25 µM.

Compound `Brc1ccc(Nc2nccc(-c3c[nH]c4ccc(Br)cc34)n2)cc1` [B9, 4-(5-Bromo-1H-indol-3-yl)-N-(4-bromophenyl) pyrimidin-2-amine] registered a melting point of 276.7 to 277.5 °C. For the same compound, in data set [1], the “Cell Glucose Uptake (%)” value is given as 12.6%. This compound had a half-maximal cytotoxic concentration (CC50) at 48 h in data set [2] of 20.3 µM.

`FC(F)(F)c1ccccc1Nc1nccc(-c2c[nH]c3ccc(Br)cc23)n1` [B10, 4-(5-Bromo-1H-indol-3-yl)-N-(2-(trifluoromethyl)phenyl) pyrimidin-2-amine] registered a melting point of 150.5 to 151.3 °C. Also, the “Cell Glucose Uptake (%)” value in data set [1] is recorded as 20.2%. In data set [2], the CC50 at 48 h was greater than 25 µM.

In the case of `Cc1ccccc1Nc1nccc(-c2c[nH]c3ccc(Br)cc23)n1` [B13, 4-(5-Bromo-1H-indol-3-yl)-N-(o-tolyl) pyrimidin-2-amine], the melting point was 187.6 to 188.4 °C. Besides, the “Cell Glucose Uptake (%)” value in data set [1] turned out to be 14.9%. The same compound returned a half-maximal cytotoxic concentration (CC50) at 48 h in data set [2] greater than 25 µM.

`Cc1cccc(Nc2nccc(-c3c[nH]c4ccc(Br)cc34)n2)c1` [B14, 4-(5-Bromo-1H-indol-3-yl)-N-(m-tolyl) pyrimidin-2-amine] came in with a melting point of 141.5 to 142.3 °C. The same compound displayed a CC50 at 48 h in data set [2] of 8.6 µM.

With `Cc1ccc(Nc2nccc(-c3c[nH]c4ccc(Br)cc34)n2)cc1` [B15, 4-(5-Bromo-1H-indol-3-yl)-N-(p-tolyl) pyrimidin-2-amine], the melting point lay in the range of 227.8 to 228.6 °C. Further, the CC50 at 48 h in data set [2] was found to be 15.5 µM.

Turning to `COc1ccccc1Nc1nccc(-c2c[nH]c3ccc(Br)cc23)n1` [B16, 4-(5-Bromo-1H-indol-3-yl)-N-(2-methoxyphenyl) pyrimidin-2-amine], the melting point lay in the range of 207.9 to 208.3 °C. The “Cell Glucose Uptake (%)” value in data set [1] was found to be 17%. In data set [2], this compound showed a CC50 at 48 h of 21.4 µM.

In the case of `COc1cccc(Nc2nccc(-c3c[nH]c4ccc(Br)cc34)n2)c1` [B17, 4-(5-Bromo-1H-indol-3-yl)-N-(3-methoxyphenyl) pyrimidin-2-amine], the melting point lay within 208.7 to 209.3 °C. This compound also gave a 50% cytotoxic concentration (CC50) at 48 h in data set [2] of 10.6 µM.

Compound `COc1ccc(Nc2nccc(-c3c[nH]c4ccc(Br)cc34)n2)cc1` [B18, 4-(5-Bromo-1H-indol-3-yl)-N-(4-methoxyphenyl) pyrimidin-2-amine] registered a melting point of 245.7 to 246.3 °C. The “Cell Glucose Uptake (%)” value in data set [1] turned out to be 6.1%. Also, in data set [2], it took 6 µM to reach half-maximal cytotoxicity (CC50 at 48 h).

The compound `CC(C)c1ccccc1Nc1nccc(-c2c[nH]c3ccc(Br)cc23)n1` [B19, 4-(5-Bromo-1H-indol-3-yl)-N-(2-isopropylphenyl) pyrimidin-2-amine] came in with a melting point of 110.5 to 111.3 °C. Also, in data set [1], the “Cell Glucose Uptake (%)” value is recorded as 13%. For the same compound, the half-maximal cytotoxic concentration (CC50) at 48 h in data set [2] was greater than 25 µM.

For `CC(C)c1cccc(Nc2nccc(-c3c[nH]c4ccc(Br)cc34)n2)c1` [B20, 4-(5-Bromo-1H-indol-3-yl)-N-(3-isopropylphenyl) pyrimidin-2-amine], the melting point lay in the range of 152.6 to 153.4 °C. Further, the CC50 at 48 h in data set [2] is 12.5 µM.

Consider `CC(C)c1ccc(Nc2nccc(-c3c[nH]c4ccc(Br)cc34)n2)cc1` [B21, 4-(5-Bromo-1H-indol-3-yl)-N-(4-isopropylphenyl) pyrimidin-2-amine], for which the melting point was 218.7 to 219.4 °C. This compound also showed a CC50 at 48 h in data set [2] of 13 µM.

With `Brc1ccc2[nH]cc(-c3ccnc(Nc4ccccc4)n3)c2c1` [B22, 4-(5-Bromo-1H-indol-3-yl)-N-phenylpyrimidin-2-amine], the melting point lay within 197.6 to 198.7 °C. Moreover, in data set [2], the 50% cytotoxic concentration (CC50) at 48 h came to 10.4 µM.

`Fc1cc(F)cc(Nc2nccc(-c3c[nH]c4ccc(Br)cc34)n2)c1` [B23, 4-(5-Bromo-1H-indol-3-yl)-N-(3,5-difluorophenyl) pyrimidin-2-amine]: the melting point was in the range of 251.3 to 252.2 °C. The midpoint of cytotoxicity in data set [2], the CC50 at 48 h, lay at 16.1 µM.

Compound `Clc1cc(Cl)cc(Nc2nccc(-c3c[nH]c4ccc(Br)cc34)n2)c1` [B24, 4-(5-Bromo-1H-indol-3-yl)-N-(3,5-dichlorophenyl) pyrimidin-2-amine] showed a melting point of 223.6 to 224.3 °C. The same compound yielded a CC50 at 48 h in data set [2] of 10.5 µM.

Compound `Brc1cc(Br)cc(Nc2nccc(-c3c[nH]c4ccc(Br)cc34)n2)c1` [B25, 4-(5-Bromo-1H-indol-3-yl)-N-(3,5-dibromophenyl) pyrimidin-2-amine] showed a melting point of 193.4 to 193.7 °C. The cytotoxic concentration (CC50) at 48 h in data set [2] was greater than 25 µM.

`FC(F)(F)c1cc(Nc2nccc(-c3c[nH]c4ccc(Br)cc34)n2)cc(C(F)(F)F)c1` [B26, N-(3,5-bis(trifluoromethyl)phenyl)-4-(5-bromo-1H-indol-3-yl) pyrimidin-2-amine] had a melting point of 220.9 to 221.3 °C. In data set [2], this compound had a CC50 at 48 h of 11.8 µM.

In turn, `Cc1cc(C)cc(Nc2nccc(-c3c[nH]c4ccc(Br)cc34)n2)c1` [B27, 4-(5-Bromo-1H-indol-3-yl)-N-(3,5-dimethylphenyl) pyrimidin-2-amine] returned a melting point of 184.6 to 185.3 °C. Also, it took 6 µM to reach half-maximal cytotoxicity in data set [2] (CC50 at 48 h).

`COc1cc(Nc2nccc(-c3c[nH]c4ccc(Br)cc34)n2)cc(OC)c1` [B28, 4-(5-Bromo-1H-indol-3-yl)-N-(3,5-dimethoxyphenyl) pyrimidin-2-amine] showed a melting point of 255.6 to 256.8 °C. In data set [2], this compound had a cytotoxic concentration (CC50) at 48 h of 10 µM.

Take `COc1cccc(OC)c1Nc1nccc(-c2c[nH]c3ccc(Br)cc23)n1` [B31, 4-(5-Bromo-1H-indol-3-yl)-N-(2,6-dimethoxyphenyl) pyrimidin-2-amine]: the melting point was 244.3 to 245.6 °C. In data set [1], the “Cell Glucose Uptake (%)” value is 16%. In data set [2], this compound gave a 50% cytotoxic concentration (CC50) at 48 h of 19.2 µM.

As to `Cn1sc(=O)n(Cc2ccccc2)c1=O` [TDZD-8, 4-benzyl-2-methyl-1,2,4-thiadiazolidine-3,5-dione, reference compound], the “Cell Glucose Uptake (%)” value in data set [1] is listed as 16%. Moreover, in data set [2], the 50% cytotoxic concentration (CC50) at 48 h was greater than 25 µM.

For the compound `Nc1nccc(-c2c[nH]c3ccc(Br)cc23)n1` [meridianin C], in data set [1], the “Cell Glucose Uptake (%)” value is recorded as less than 5%. The same compound had a CC50 at 48 h in data set [2] of 13 µM.
